Results: PMC12990037, “Discovery of Two Structurally Distinct Classes of Inhibitors Targeting the Nuclease MUS81 and Enhancing Efficacy of Chemotherapy in Cancer Cells” (Journal of Medicinal Chemistry, 2026)

What was measured:
U2OS cells = assay: EdU/PI cell cycle assay; assay type: cell-based; conditions: 72 h; for cell cycle progression: 0.5 μM; for cell cycle profile: 1 μM
Method: Given these promising findings, we further investigated the specificity of MU262 and MU876 and potential short-term cytotoxicity. To mirror the treatment duration used in BIR and HR assays, U2OS cells were exposed to the inhibitors or siRNA for 3 days.
U2OS WT cells (300,000) were seeded in a 6-well plate; a subset of them was treated with either control siRNA or siRNA targeting MUS81. After adhesion, cells were treated with the respective inhibitors for 72 h during which CPT ([…], Sigma-Aldrich) was added for the last 16 h and 10 μM EdU (Sigma-Aldrich) was added for the last 1 h. Cells were then harvested and stained by using the Click-iT EdU Alexa Fluor 647 Flow Cytometry Assay Kit (Thermo Fisher Scientific). Finally, cells were resuspended in 1xPBS containing 5 μg/mL of propidium iodide (PI) and analyzed using a BD FACSVerse flow cytometer (Becton Dickinson) and FlowJo software (BD Life Sciences). At least 20,000 cells were used for each measurement, and experiments were performed in duplicates.

U2OS, HEK293, and CAL51 = assay: Cell proliferation assay (CyQUANT), combination with cisplatin; assay type: cell-based; conditions: cotreatment with cisplatin, 5 days
Method: 7 MUS81 inhibitors synergize with cisplatin to reduce cancer cell viability. (A,B) U2OS cells were treated with DMSO, MU262, or MU876 at the indicated concentrations in combination with a range of cisplatin (0–5 μM) for 96–120 h. Cell viability was assessed by the Cy-Quant assay. The survival was normalized to the DMSO-treated control. Graphs were generated in Graphpad Prism using the nonlinear regression fitting model. n ≥ 3, error bars represent s.d. (C) CAL51 WT cells were treated with DMSO, MU262, or MU876 at the indicated concentrations at each passage over 2 weeks. Cisplatin (12 μM) was added for the last 24 h before harvest. DNA damage was assessed by quantifying γH2AX foci using fluorescence microscopy and CellProfiller software. Data were visualized plotted in R software. Red markers represent the median of γH2AX foci number per nucleus; blue markers represent the percentage of cells with ≥20 γH2AX foci per nucleus. n = 3, error bars represent s.d.; ****p <0.0001 (unpaired, two-tailed t-test). TEXT PRINTED IN THE PICTURE: (C) D: γH2AX foci: 2.4 (DMSO); γH2AX foci: 59.6 (Cisplatin) | (C) MU262: γH2AX foci: 2.3 (1 μM; DMSO); γH2AX foci: 3 (2 μM; DMSO); γH2AX foci: 55.4 (1 μM; Cisplatin); γH2AX foci: 43.2 (2 μM; Cisplatin) | (C) MU876: γH2AX foci: 2.8 (0.25 μM; DMSO); γH2AX foci: 0.9 (0.5 μM; DMSO); γH2AX foci: 48.2 (0.25 μM; Cisplatin); γH2AX foci: 42.6 (0.5 μM; Cisplatin) DOUBTS OF THE COPYIST ABOUT THIS PICTURE: Panel C: the numbers in the blue markers have no measure or unit of their own printed in the picture; the axis title 'γH2AX foci' is given as the measure, but the numbers may stand for another quantity. / Panel C: 'D' is a control column with no concentration; it may not count as a substance. / Panel C: small white print on blue markers; 59.6, 55.4, 48.2, 43.2, 42.6, 2.8 and 0.9 are best readings (3, 5, 6, 8 and 9 are hard to tell apart).
CAL51 WT, CAL51 MUS81^–/–, U2OS, and HEK293 cells were seeded in a 96-well plate and treated with the respective concentration of selected inhibitors. […]

CAL51 WT cells = assay: γH2AX foci after cisplatin treatment; assay type: cell-based; conditions: compared to the DMSO controls
Method: 7 MUS81 inhibitors synergize with cisplatin to reduce cancer cell viability. (A,B) U2OS cells were treated with DMSO, MU262, or MU876 at the indicated concentrations in combination with a range of cisplatin (0–5 μM) for 96–120 h. Cell viability was assessed by the Cy-Quant assay. The survival was normalized to the DMSO-treated control. Graphs were generated in Graphpad Prism using the nonlinear regression fitting model. n ≥ 3, error bars represent s.d. (C) CAL51 WT cells were treated with DMSO, MU262, or MU876 at the indicated concentrations at each passage over 2 weeks. Cisplatin (12 μM) was added for the last 24 h before harvest. DNA damage was assessed by quantifying γH2AX foci using fluorescence microscopy and CellProfiller software. Data were visualized plotted in R software. Red markers represent the median of γH2AX foci number per nucleus; blue markers represent the percentage of cells with ≥20 γH2AX foci per nucleus. n = 3, error bars represent s.d.; ****p <0.0001 (unpaired, two-tailed t-test). […]
U2OS, CAL51 WT, and CAL51 MUS81^–/– cells (10,000) were seeded in a 96-well plate 24 h before the treatment. […] The γH2AX foci were detected and quantified using CellProfiler (Broad Institute of MIT and Harvard). The analyzed data were plotted in RStudio software using R programming language.

Microsomal stability = assay type: in vitro ADME

Structure (SMILES)	cell cycle progression (U2OS cells)	cell cycle profile (U2OS cells)	enhancement of cisplatin-induced decrease of viability (U2OS, HEK293, and CAL51)	γH2AX foci following cisplatin treatment (CAL51 WT cells)	microsomal stability (Microsomal stability)
CCc1nn2c(O)c(-c3nc4ccccc4[nH]3)nnc2c1-c1ccc(F)cc1 [Compound 18, 3-(1H-Benzo[d]imidazole-2-yl)-7-ethyl-8-(4-fluorophenyl)pyrazolo[5,1-c][1,2,4]triazin-4-ol]	neither MU262 and MU876 affected the cell cycle progression	mild increase in the S phase	further enhanced by cotreatment with both MUS81 inhibitors in a dose-dependent manner	significantly reduced the number of γH2AX foci in a concentration-dependent manner	good microsomal stability
Cc1cc(=O)[nH]c(-n2nc(-c3ccccc3)cc2NC(=O)c2cc(-c3ccccc3)on2)n1 [Compound 32, N-(1-(4-Methyl-6-oxo-1,6-dihydropyrimidin-2-yl)-3-phenyl-1H-pyrazol-5-yl)-5-phenylisoxazole-3-carboxamide]	neither MU262 and MU876 affected the cell cycle progression	mild increase in the S phase	further enhanced by cotreatment with both MUS81 inhibitors in a dose-dependent manner	significantly reduced the number of γH2AX foci in a concentration-dependent manner	good microsomal stability
